Here are results for four compounds from patent EP4458977A1, “SELF-ASSEMBLING PEPTIDE AMPHIPHILES AS RETROVIRAL TRANSDUCTION ENHANCERS” (Max-Planck-Gesellschaft zur Förderung der Wissenschaften …, priority 2023, dated 2024).

“Also recorded” adds a separate entry of the source. Where a SMILES comes first, the peptide text is derived from it. Where no end group is shown, it is not given here. The star is where a group is joined. Palmitoyl = CCCCCCCCCCCCCCCC(=O)*

One data set deals with HeLa cells. The data set is described as follows: Confocal laser scanning microscopy and degradation study with PA library and HeLa cells. It counts as cell-based. As to conditions: for association with cellular membranes: 2 µg added to 20.000 HeLa cells, 30 min; for degradability (in words) / Degradability / % (rel. to initial particles > 10 µm^2): HeLa cells; for degradability (in words): 3 days; for Degradability / % (rel. to initial particles > 10 µm^2): 3 d relative to 30 min. As to the method: In general, the procedure for determine whether a PA is degraded or not, is conducted by confocal laser scanning microscopy of Proteostat stained PAs which are added to Hela cells (2 µg peptide added to 20.000 cells). Microscopy is conducted at day 0 (d0, after 30 min of incubation) and at day 3 (d3, after 72 h of incubation). The number of aggregates >10 µm^2 is counted via 3D object counter in imaged in an area of 1008 µm × 1008 µm.
A PA is considered to be degradable if the number and the size of aggregates are reduced after 3 days. The efficiency is determined by the percentual degradation (aggregate number at d3 / aggregate number at d0). For the number of aggregation three technical replicates were evaluated for each sample. A large deviation represents a nonhomogeneous spatial distribution of aggregates.
Confocal laser scanning microscopy and degradation study with PA library and HeLa cells: Confocal laser scanning microscopy studies were performed for the visualization of the cell-PA interaction. HeLa cells were seeded one day prior to conducting the assay (20,000/well) in an 8-well IBIDI slide. […] The nucleus of the HeLa cells was stained with Hoechst 33342 (NucBlue™, Thermo Fisher Scientific). The peptide solution mixture was transferred to the HeLa cells and incubated for 30 min at 37°C before washing three times with PBS. […] For the evaluation of aggregate degradation, the samples were further incubated at 37°C for 3 d and analyzed without any additional washing step. […] The number of aggregates were determined by counting aggregates larger than the threshold 10 µm^2 in an area of 1008 × 1008 µm and repeated in three technical triplicates.

The test system of a further data set is HIV-1. As to conditions: for enhancement of HIV-1 infection / transduction (in words): 6.5 µM, 1.3 µM, 0.26 µM; for Infectivity enhancing N fold at 1.3 µM: relative to virus only.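 For all read-outs here: TZM-bl reporter cells exposed to HIV-1 with peptide fibrils, infection read out as β-galactosidase luminescence, compared with virus alone.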
Data set [1] is described as follows: Fluorescence microscopy of ThT-stained fibrils (µm-sized aggregates). It counts as physicochemical. The note with it: 1 mg/mL stained with 50 µM ThT. How it is done:
(§1) Transmission electron microscopy (TEM) measurements, Thioflavin (ThT), zeta-potential measurements for fibril characterization were prepared and conducted according to prior art procedures. […] Fibrils were defined as distinct, if no visible structures could be identified in fluorescence and brightfield microscopy.
Fluorescence microscopy: 1 µL Fibrils (1 mg mL^-1) were stained with 9 µL, 50 µM ThT. 10 µL of the stained fibrils (0.1 mg mL^-1) were placed on a microscopy glass. Fluorescence microscopy measurements were performed on a Leica DMi8 microscope with 10x air objective and equipped with a Leica MC170 HD camera with a filter setting λem = 527/30 nm upon excitation at λex = 480/40 nm) and processed with the Leica LASX software.

Data set [2] can be described thus: ATR-FT-IR determination of β-sheet content. It counts as physicochemical. As to conditions: 1 mg/mL in PBS lyophilized; integral at 1630 cm^-1 relative to 1650-1700 cm^-1. As to the method:
ATR-FT-IR: ATR-IR spectra acquisition and the calculation of β-sheet content were conducted according prior art procedures. Briefly, FT-IR spectra of solid samples were recorded after lyophilization of fibril solutions using a Bruker Tensor II spectrometer equipped with a diamond crystal as ATR element with a spectral resolution of 2 cm^-1, each spectrum was an average of 64 scans. The data was processed with Origin software. β-sheet amount was determined by calculating the integral of the peak at 1630 cm-1 (β-sheet) relative to the integral between 1650-1700 cm-1 (native structure) from the 2nd derivative of the FT-IR spectra.

The nature of data set [3]: TEM of peptide assemblies (fibril formation / assembly). It counts as physicochemical. The note with it: for TEM morphology (in words): 1 mg/mL in PBS; for Assembly without hydrophob residue: corresponding peptide without hydrophobic moiety; for Assembly: peptide amphiphile. As to the method: The peptides were predissolved in DMSO to a concentration of 10 mg/mL. The fibril formation was induced by further diluting the solution to a final incubation concentration of 650 µM or 1 mg/mL in PBS as indicated in the text and incubated for 1 d (1 day) at rt (room temperature, 20 °C - 25 °C). Other concentrations as described herein were achieved by further dilution of preformed fibrils.
as §1

Procedure for HIV-1: HIV-1 Infection Assay with TZM-bl cells: The effect of peptide fibrils on HIV-1 infection was studied via a luminescence assay for β-galactosidase, which was reported by TZM-bl cells upon infection. The HIV-1 infection assay was conducted in three technical replicates and repeated in three independent experiments unless stated otherwise.

Regarding “C16-disulfide-CVVVAAAKKK-NH2 (not fully specified (residue 1); printed as C16-disulfide-CVVVAAAKKK-NH2) [Pat2]”, the “association with cellular membranes” value with HeLa cells is on record as “no visible association with cellular membranes”. In the data set with HIV-1, the “enhances infectivity at 1.3 µM concentration, times more efficient compared to virus only infection” value is listed as 4 times; the “enhancement of HIV-1 infection / transduction (in words)” value was “weak enhancers of HIV-1 infection”; the “Infectivity enhancing N fold at 1.3 µM” value was found to be 4±2 N fold. In data set [1], the “fluorescent, µm-sized aggregates (ThT staining)” value (shortened to “fluorescent … (ThT staining)”) is listed as “fluorescent, µm-sized aggregates”. The compound also came in with a β-sheet amount in data set [2] of 57%. Besides, in data set [3], the “TEM morphology (in words)” value was “fibrillar morphologies”, the “Assembly without hydrophob residue” value is “No” and the Assembly result is given as “Yes”.

In the case of NFYLQVNKINK-NH2 [Pat46], in the data set with HeLa cells, the “association with cellular membranes” value is “association with cellular membranes” and the “degradability (in words)” value was “not efficiently degradable; also recorded: non-degradable PA”. Further, the “aggregate number decreases / degraded in presence of HeLa cells within 3 days” value in the data set with HeLa cells (d3 relative to d0) was “stays also similar”. Besides, in the data set on HIV-1, the “enhancement of HIV-1 infection / transduction (in words)” value is recorded as “potent enhancers of HIV-1 infection”. In data set [1], the “fluorescent … (ThT staining)” value is given as “fluorescent, µm-sized aggregates”. The same compound yielded a β-sheet amount in data set [2] of 49%. Also, the “TEM morphology (in words)” value in data set [3] is given as “fibrillar morphologies”. The “TEM morphology (in words)” value in data set [3] (listed as NFYLQVNKINK) is “unexpectedly forming fibrils by themselves”.

On to `CCCCCCCCCCCCCCCC(=O)N[C@@H](C)C(=O)N[C@H](C(=O)N[C@@H](C)C(=O)N[C@@H](CCCCN)C(=O)N[C@@H](CCCCN)C(=O)N[C@@H](CCCCN)C(N)=O)C(C)C` [Pat21, C16-AVAKKK-NH2] (Palmitoyl-AVAKKK-NH2), for which, in the data set with HeLa cells, the “association with cellular membranes” value is given as “association with cellular membranes”, the “degradability (in words)” value is given as “can be degraded; also recorded: not efficiently degradable; also recorded: degradable PA” and the “Degradability / % (rel. to initial particles > 10 µm^2)” value was 68%. Moreover, the “aggregate number decreases / degraded in presence of HeLa cells within 3 days” value in the data set on HeLa cells (d3 relative to d0) turned out to be 84%. In addition, in the data set on HIV-1, the “enhances infectivity at 1.3 µM concentration, times more efficient compared to virus only infection” value worked out at 2 times; the “enhancement of HIV-1 infection / transduction (in words)” value is “no infectivity enhancement can be observed”; the “Infectivity enhancing N fold at 1.3 µM” value amounted to 2±0 N fold. In addition, in data set [1], the “fluorescent … (ThT staining)” value was “fluorescent, µm-sized aggregates”. In data set [2], the β-sheet amount came to 45%. For the same compound, in data set [3], the “TEM morphology (in words)” value is “fibrillar morphologies”, the “Assembly without hydrophob residue” value is given as “No” and the Assembly entry is given as “Yes”.

Take `CCCCCCCCCCCCCCCC(=O)N[C@@H](CCCCN)C(=O)N[C@H](C(=O)N[C@H](C(=O)N[C@@H](CO)C(=O)N[C@@H](Cc1ccccc1)C(=O)N[C@@H](CCCCN)C(N)=O)[C@@H](C)CC)[C@@H](C)CC` [Pat32, C16-KIISFK-NH2] (Palmitoyl-KIISFK-NH2): in the data set with HeLa cells, the “association with cellular membranes” value was “association with cellular membranes”, the “degradability (in words)” value is given as “cannot be degraded; also recorded: not efficiently degradable; also recorded: non-degradable PA” and the “Degradability / % (rel. to initial particles > 10 µm^2)” value is reported as -84%. This compound also came in with an aggregate number increases in the data set with HeLa cells (d3 relative to d0) of 84%. In the data set with HIV-1, the “infectivity enhancement at 1.3 µM concentration compared to virus only infection (in words)” value is given as “does not enhances infectivity” and the “Infectivity enhancing N fold at 1.3 µM” value was determined as 2±1 N fold. Moreover, the “fluorescent … (ThT staining)” value in data set [1] is “fluorescent, µm-sized aggregates”. For the same compound, the β-sheet amount in data set [2] is 46%. Also, in data set [3], the “TEM morphology (in words)” value is listed as “fibrillar morphologies”, the “Assembly without hydrophob residue” value is “No” and the Assembly result is on record as “Yes”.
